The text below walks through data of patent US12180207B2 (ARRAY BIOPHARMA INC., priority 2018, dated 2024).

Experiment [1] has as its target recombinant human FGFR1 catalytic domain (amino acids 308-731) (Homo sapiens (Human), UniProt P11362). The experiment is described as follows: FGFR1 enzyme activity assay (LanthaScreen TR-FRET). Conditions: 20 min incubation at 22° C., average of multiple determinations if made, read-out: FGFR1 Enz FRET IC50. Format: biochemical. An outline of the steps:
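His-tagged FGFR1 kinase domain with 100 nM Alexa Fluor 647-poly-GT peptide and ATP in pH 7.5 HEPES/MgCl2 buffer with 2% DMSO, 20 min at 22 °C. Quenched with EDTA plus 2 nM Eu-PY20 antibody and read after 60 min. IC50 comes from a 4-parameter fit of percent of control.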
On the technique in general: In TR-FRET formats the signal depends on donor and acceptor labels being close together.

Experiment [2] addresses FGFR3 (SEQ ID NO: 5, amino acids 449-759) (Homo sapiens (Human), UniProt P22607). The experiment is described as follows: LC/MS FGFR3 kobs assay (covalent protein modification). The conditions noted are these: 500 nM FGFR3, 3 μM compound. Format: binding. A digest of the protocol: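 The observed rate constant kobs comes from an exponential decay fit of percent unmodified kinase over time. Covalent modification was quantified by Q-TOF LC/MS of formic acid-quenched samples, normalized against DMSO controls.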

In experiment [3] the target is FGFR1 (SEQ ID NO: 1, amino acids 458-765) (Homo sapiens (Human), UniProt P11362). The experiment is described as follows: LC/MS FGFR1 kobs assay (covalent protein modification). Format: binding. The conditions noted are these: 500 nM FGFR1, 3 μM compound. A digest of the protocol: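 Covalent labeling of FGFR1 kinase domain (aa 458-765) tracked over time by intact-protein LC/MS after formic acid quench. kobs derived by fitting DMSO-normalized percent unmodified FGFR1 to an exponential decay model.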
Chain of FGFR1 (SEQ ID NO: 1, amino acids 458-765) (P11362 458-765): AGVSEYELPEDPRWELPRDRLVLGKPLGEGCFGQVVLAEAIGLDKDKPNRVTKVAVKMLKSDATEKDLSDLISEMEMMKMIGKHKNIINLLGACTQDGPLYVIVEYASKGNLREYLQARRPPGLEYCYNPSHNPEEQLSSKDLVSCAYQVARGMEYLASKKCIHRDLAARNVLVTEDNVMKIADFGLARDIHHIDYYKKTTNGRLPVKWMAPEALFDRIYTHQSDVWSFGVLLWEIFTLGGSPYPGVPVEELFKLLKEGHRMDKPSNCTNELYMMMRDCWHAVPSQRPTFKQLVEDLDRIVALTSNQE

Experiment [4] deals with phosphorylated FGFR3 (SEQ ID NO: 5, amino acids 449 to 759) (Homo sapiens (Human), UniProt P22607). The experiment in a line: FGFR enzyme binding assay (HTRF tracer displacement), FGFR3. The conditions noted are these: 5 nM phosphorylated FGFR3, average of multiple determinations if made. A digest of the protocol:
(§1)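 Compounds were tested for displacement of a tracer from human FGFR kinase in a time-resolved FRET binding format. After 60 minutes at 22° C, signal was read at two wavelengths and converted to percent of control, normalised between untreated wells and 1 μM reference inhibitor.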

Experiment [5] addresses dephosphorylated FGFR1 (SEQ ID NO: 1, amino acids 458 to 765) (Homo sapiens (Human), UniProt P11362). The experiment in a line: FGFR enzyme binding assay (HTRF tracer displacement), FGFR1. Conditions: 5 nM dephosphorylated FGFR1, average of multiple determinations if made. A digest of the protocol: as §1
The target in experiment [6] is recombinant human FGFR2 cytoplasmic domain (amino acids 403-822) (Homo sapiens (Human), UniProt P21802). The experiment is described as follows: FGFR2 enzyme activity assay (LanthaScreen TR-FRET). In kind it is biochemical. The conditions noted are these: 15 μM ATP, 20 min incubation at 22° C., average of multiple determinations if made, read-out: FGFR2 Enz FRET IC50. A digest of the protocol:
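His-tagged FGFR2 cytoplasmic domain ([…]) with 100 nM Alexa Fluor 647-poly-GT peptide and 15 μM ATP in HEPES/MgCl2/Triton buffer, pH 7.5, 2% DMSO, 20 min at 22 °C. EDTA-quenched, Eu-PY20 antibody added, TR-FRET read after 60 min.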

Chain of FGFR3 (SEQ ID NO: 5, amino acids 449-759) (P22607 449-759): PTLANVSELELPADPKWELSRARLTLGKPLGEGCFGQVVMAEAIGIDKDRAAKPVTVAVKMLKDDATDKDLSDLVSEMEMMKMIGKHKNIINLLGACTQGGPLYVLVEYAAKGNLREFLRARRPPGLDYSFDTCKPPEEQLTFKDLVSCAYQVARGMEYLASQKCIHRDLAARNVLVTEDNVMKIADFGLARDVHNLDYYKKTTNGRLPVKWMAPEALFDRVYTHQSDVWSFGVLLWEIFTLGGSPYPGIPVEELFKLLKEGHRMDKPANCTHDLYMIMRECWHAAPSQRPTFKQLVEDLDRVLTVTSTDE
Chain of phosphorylated FGFR3 (SEQ ID NO: 5, amino acids 449 to 759) (P22607 449-759): as above
Chain of recombinant human FGFR2 cytoplasmic domain (amino acids 403-822) (P21802 402-821): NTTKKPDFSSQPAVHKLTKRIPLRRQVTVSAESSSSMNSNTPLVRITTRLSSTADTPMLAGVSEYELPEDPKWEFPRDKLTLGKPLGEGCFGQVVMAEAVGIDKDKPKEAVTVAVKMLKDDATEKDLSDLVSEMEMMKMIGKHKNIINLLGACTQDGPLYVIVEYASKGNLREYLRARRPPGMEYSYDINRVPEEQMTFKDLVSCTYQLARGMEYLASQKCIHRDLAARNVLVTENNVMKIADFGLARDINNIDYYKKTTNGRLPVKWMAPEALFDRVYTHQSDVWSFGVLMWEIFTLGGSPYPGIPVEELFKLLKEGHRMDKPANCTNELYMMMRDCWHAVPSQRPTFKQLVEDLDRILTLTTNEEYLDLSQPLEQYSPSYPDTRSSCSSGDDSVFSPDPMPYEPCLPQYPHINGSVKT
Chain of recombinant human FGFR1 catalytic domain (amino acids 308-731) (P11362 other isoform, or with tags, fused parts or gaps): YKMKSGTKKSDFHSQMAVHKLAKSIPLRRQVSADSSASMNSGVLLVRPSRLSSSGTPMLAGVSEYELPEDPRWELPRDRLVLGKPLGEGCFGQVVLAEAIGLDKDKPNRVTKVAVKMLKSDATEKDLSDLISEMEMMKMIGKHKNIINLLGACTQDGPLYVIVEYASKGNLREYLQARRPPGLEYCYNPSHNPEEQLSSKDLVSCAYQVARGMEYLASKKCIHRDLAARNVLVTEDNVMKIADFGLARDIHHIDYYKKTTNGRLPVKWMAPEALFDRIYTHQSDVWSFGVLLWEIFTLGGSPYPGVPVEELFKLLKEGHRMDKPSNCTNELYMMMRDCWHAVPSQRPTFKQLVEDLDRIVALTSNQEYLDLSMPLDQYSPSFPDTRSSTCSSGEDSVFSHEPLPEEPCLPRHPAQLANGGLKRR
Chain of dephosphorylated FGFR1 (SEQ ID NO: 1, amino acids 458 to 765) (P11362 458-765): as the sequence (P11362 458-765) above

The term IC50 denotes the concentration needed to halve the response being measured. Turning to `C=CC(=O)N1CC(CC)(C(=O)N2CCC(n3cc(-c4cc(OC)c5c(C#N)cnn5c4)cn3)CC2)C1` [Example 40, 6-(1-(1-(1-acryloyl-3-ethylazetidine-3-carbonyl)piperidin-4-yl)-1H-pyrazol-4-yl)-4-methoxypyrazolo[1,5-a]pyridine-3-carbonitrile], the IC50 in experiment [1] came out at 9 nM; in experiment [4], 5 nM; in experiment [5], 38 nM; in experiment [6], 3 nM. The “FGFR3 Enz kobs” value in experiment [2] amounted to 0.01133 min⁻¹. Moreover, the “FGFR1 Enz kobs” value in experiment [3] came to 0.00138 min⁻¹.

For `C=CC(=O)N1CCC(F)(C(=O)N2CCC(n3cc(-c4cc(OC)c5c(C#N)cnn5c4)cn3)CC2)C1` (stereo not drawn) [Example 30, 6-(1-(1-(1-acryloyl-3-fluoropyrrolidine-3-carbonyl)piperidin-4-yl)-1H-pyrazol-4-yl)-4-methoxypyrazolo[1,5-a]pyridine-3-carbonitrile], the IC50 is 9 nM in experiment [1], 5 nM in experiment [4], 51 nM in experiment [5] and 3 nM in experiment [6]. The “FGFR3 Enz kobs” value in experiment [2] turned out to be 0.01214 min⁻¹. Moreover, in experiment [3], the “FGFR1 Enz kobs” value was 0.00104 min⁻¹.

Take `C=CC(=O)N1CC(C(=O)N2CC(n3cc(-c4cc(OC)c5c(C#N)cnn5c4)cn3)C2)C1` [Example 78, 6-(1-(1-(1-acryloylazetidine-3-carbonyl)azetidin-3-yl)-1H-pyrazol-4-yl)-4-methoxypyrazolo[1,5-a]pyridine-3-carbonitrile]: the IC50 turned out to be 17 nM in experiment [1], 8 nM in experiment [4], 98 nM in experiment [5] and 23 nM in experiment [6]. For the same molecule, in experiment [2], the “FGFR3 Enz kobs” value was determined as 0.01629 min⁻¹. In addition, in experiment [3], the “FGFR1 Enz kobs” value came to 0.00146 min⁻¹.

With `C=CC(=O)N1CC(CN2CC(n3cc(-c4cc(OC)c5c(C#N)cnn5c4)cn3)C2)C1` [Example 81, 6-(1-(1-((1-acryloylazetidin-3-yl)methyl)azetidin-3-yl)-1H-pyrazol-4-yl)-4-methoxypyrazolo[1,5-a]pyridine-3-carbonitrile], the IC50 in experiment [1] was 31 nM; in experiment [4], 60 nM; in experiment [5], 186 nM; in experiment [6], 8 nM. Also, the “FGFR3 Enz kobs” value in experiment [2] was determined as 0.00615 min⁻¹. Further, the “FGFR1 Enz kobs” value in experiment [3] is 0.00086 min⁻¹.

With `C=CC(=O)N1CC(C(=O)N2C3CC2CN(c2ccc(-c4cc(OC)c5c(C#N)cnn5c4)cn2)C3)C1` [Example 52, 6-(6-(6-(1-acryloylazetidine-3-carbonyl)-3,6-diazabicyclo[3.1.1]heptan-3-yl)pyridin-3-yl)-4-methoxypyrazolo[1,5-a]pyridine-3-carbonitrile], the IC50 came out at 66 nM in experiment [1], 14 nM in experiment [4], 86 nM in experiment [5] and 14 nM in experiment [6]. Besides, the “FGFR3 Enz kobs” value in experiment [2] is 0.00929 min⁻¹. Also, the “FGFR1 Enz kobs” value in experiment [3] worked out at 0.00086 min⁻¹.

Regarding `C=CC(=O)N1C2CC1CN(C(=O)N1CCC(n3cc(-c4cc(OC)c5c(C#N)cnn5c4)cn3)CC1)C2` [Example 1, 6-(1-(1-(6-acryloyl-3,6-diazabicyclo[3.1.1]heptane-3-carbonyl)piperidin-4-yl)-1H-pyrazol-4-yl)-4-methoxypyrazolo[1,5-a]pyridine-3-carbonitrile], the IC50 is 5 nM in experiment [1], 4 nM in experiment [4], 50 nM in experiment [5] and 15 nM in experiment [6]. Besides, the “FGFR3 Enz kobs” value in experiment [2] worked out at 0.01496 min⁻¹. Moreover, in experiment [3], the “FGFR1 Enz kobs” value amounted to 0.00122 min⁻¹.

With `C=CC(=O)N1CC(C(=O)N2CCC(n3ncc(-c4cc(OC)c5c(C#N)cnn5c4)c3C)CC2)C1(C)C` (stereo not drawn) [Example 87, 6-(1-(1-(1-acryloyl-2,2-dimethylazetidine-3-carbonyl)piperidin-4-yl)-5-methyl-1H-pyrazol-4-yl)-4-methoxypyrazolo[1,5-a]pyridine-3-carbonitrile], the IC50 was 240 nM in experiment [1], 16 nM in experiment [4], 322 nM in experiment [5] and 18 nM in experiment [6]. For the same molecule, the “FGFR3 Enz kobs” value in experiment [2] came to 0.00502 min⁻¹. Besides, in experiment [3], the “FGFR1 Enz kobs” value is 0.00052 min⁻¹.

Take `C=CC(=O)N1CC(F)(C(=O)N2CCC(n3ncc(-c4cc(OC)c5c(C#N)cnn5c4)c3C)CC2)C1` [Example 85, 6-(1-(1-(1-acryloyl-3-fluoroazetidine-3-carbonyl)piperidin-4-yl)-5-methyl-1H-pyrazol-4-yl)-4-methoxypyrazolo[1,5-a]pyridine-3-carbonitrile]: the IC50 in experiment [1] was found to be 77 nM; in experiment [4], 3 nM; in experiment [5] it was 247 nM; in experiment [6] it was 13 nM. Further, in experiment [2], the “FGFR3 Enz kobs” value came out at 0.1061 min⁻¹. Moreover, in experiment [3], the “FGFR1 Enz kobs” value was found to be 0.00492 min⁻¹.

For `C=CC(=O)N1CC(C(=O)N2CCC(n3cc(-c4cc(OC)c5c(C#N)cnn5c4)cn3)CC2)C1(C)C` (stereo not drawn) [Example 43, 6-(1-(1-(1-acryloyl-2,2-dimethylazetidine-3-carbonyl)piperidin-4-yl)-1H-pyrazol-4-yl)-4-methoxypyrazolo[1,5-a]pyridine-3-carbonitrile], the IC50 in experiment [1] worked out at 6 nM; in experiment [4], 4 nM; in experiment [5] it was 54 nM; in experiment [6], 3 nM. Besides, the “FGFR3 Enz kobs” value in experiment [2] worked out at 0.0041 min⁻¹. The “FGFR1 Enz kobs” value in experiment [3] amounted to 0.0005 min⁻¹.

As for `C=CC(=O)N1C2COCC1CN(C(=O)N1CCC(n3cc(-c4cc(OC)c5c(C#N)cnn5c4)cn3)CC1)C2` [Example 3, 6-(1-(1-(9-acryloyl-3-oxa-7,9-diazabicyclo[3.3.1]nonane-7-carbonyl)piperidin-4-yl)-1H-pyrazol-4-yl)-4-methoxypyrazolo[1,5-a]pyridine-3-carbonitrile], the IC50 in experiment [1] is 8 nM; in experiment [4], 3 nM; in experiment [5], 44 nM; in experiment [6], 5 nM. In addition, the “FGFR3 Enz kobs” value in experiment [2] is 0.01875 min⁻¹. Moreover, the “FGFR1 Enz kobs” value in experiment [3] stood at 0.00172 min⁻¹.

`C=CC(=O)Nc1cccc(C(=O)N2CCC(n3cc(-c4cc(OC)c5c(C#N)cnn5c4)cn3)CC2)c1` [Example 22, N-(3-(4-(4-(3-cyano-4-methoxypyrazolo[1,5-a]pyridin-6-yl)-1H-pyrazol-1-yl)piperidine-1-carbonyl)phenyl)acrylamide]: the IC50 in experiment [1] stood at 21 nM; in experiment [4] it was 8 nM; in experiment [5], 112 nM; in experiment [6] it was 5 nM. Also, in experiment [2], the “FGFR3 Enz kobs” value amounted to 0.0108 min⁻¹. In experiment [3], the “FGFR1 Enz kobs” value is 0.00187 min⁻¹.

As to `C=CC(=O)N1CC[C@H](C(=O)N2CC(n3cc(-c4cc(OC)c5c(C#N)cnn5c4)cn3)C2)C1` [Example 76, (S)-6-(1-(1-(1-acryloylpyrrolidine-3-carbonyl)azetidin-3-yl)-1H-pyrazol-4-yl)-4-methoxypyrazolo[1,5-a]pyridine-3-carbonitrile], the IC50 stood at 52 nM in experiment [1], 55 nM in experiment [4], 409 nM in experiment [5] and 17 nM in experiment [6]. In addition, the “FGFR3 Enz kobs” value in experiment [2] was found to be 0.00317 min⁻¹. The “FGFR1 Enz kobs” value in experiment [3] is 0.0007 min⁻¹.

As for `C=CC(=O)N1CC2(CCC(C(=O)N3CCC(n4cc(-c5cc(OC)c6c(C#N)cnn6c5)cn4)CC3)CC2)C1` [Example 21, 6-(1-(1-(2-acryloyl-2-azaspiro[3.5]nonane-7-carbonyl)piperidin-4-yl)-1H-pyrazol-4-yl)-4-methoxypyrazolo[1,5-a]pyridine-3-carbonitrile], the IC50 in experiment [1] stood at 10 nM; in experiment [4], 5 nM; in experiment [5], 57 nM; in experiment [6] it was 3 nM. For the same molecule, the “FGFR3 Enz kobs” value in experiment [2] was determined as 0.00661 min⁻¹. Also, the “FGFR1 Enz kobs” value in experiment [3] worked out at 0.00085 min⁻¹.

Consider `C=CC(=O)N1CC(C)(CN2CC(n3ncc(-c4cc(OC)c5c(C#N)cnn5c4)c3C)C2)C1` [Example 93, 6-(1-(1-((1-acryloyl-3-methylazetidin-3-yl)methyl)azetidin-3-yl)-5-methyl-1H-pyrazol-4-yl)-4-methoxypyrazolo[1,5-a]pyridine-3-carbonitrile], for which the IC50 in experiment [1] was found to be 376 nM; in experiment [4], 40 nM; in experiment [5], 482 nM; in experiment [6], 127 nM. Moreover, the “FGFR3 Enz kobs” value in experiment [2] is 0.00896 min⁻¹. The “FGFR1 Enz kobs” value in experiment [3] turned out to be 0.0012 min⁻¹.
